Consider 10 molecules from patent publication US10968178B2, “IP6K inhibitors” (TAKEDA PHARMACEUTICAL COMPANY LIMITED, priority 2017, dated 2021).

Type in all cases: biochemical
For one assay, the target named is T1, human IP6K1 (Homo sapiens, UniProt Q92551).
T1 construct: human IP6K1 (1-441) gene; GST; made in house; host or cells: Sf-9 insect cells
Nature of the assay: IP6K enzyme inhibitory assay (ADP-Glo Kinase Assay), human IP6K1. Particulars: compound concentration 0.1 μM; read-out: ADP-Glo method inhibitory rate (%) human IP6K1. As for the experimental part:
(§1) IP6K Enzyme Inhibitory Assay
(§2) Human IP6K3 enzyme was prepared by transducing human IP6K3 (1-410) gene into BL21 (DE3) Escherichia coli and purifying by Ni-NTA (nickel-nitrilotriacetic acid) affinity column. […] The enzymes were used after preservation at −70° C. The IP6K enzyme inhibitory activity of the test compound was measured by the following experiment method and using ADP-Glo™ Kinase Assay (manufactured by Promega). A test compound diluted with an assay buffer (20 mM HEPES (pH 7.5), 6 mM MgCl2, 0.01% Tween-20, 1 mM DTT) was first added by 2 μL to a 384 well plate. […] The IP6K enzyme solution diluted with the assay buffer was added by 2 μL to start the enzyme reaction. Incubation was performed at room temperature for a given time (120 min for rat IP6K3 alone, 60 min for others). After incubation at room temperature, ADP-Glo solution prepared according to the protocol of Promega was added by 3 μL to the 384 well plate and reacted at room temperature for 30 min. Thereafter, Kinase-Detection solution was added by 6 μL to the 384 well plate and reacted at room temperature for 60 min. After the reaction, the luminescence intensity was measured by a plate reader Envision (manufactured by PerkinElmer).
On the technique in general: ADP-Glo first removes unused ATP, then detects ADP through luciferase.

A further assay has as its target T2, human IP6K2 (Homo sapiens, UniProt Q9UHH9).
T2 construct: human IP6K2 (1-426) gene; GST; made in house; host or cells: Sf-9 insect cells
T2 sequence (Q9UHH9 1-426): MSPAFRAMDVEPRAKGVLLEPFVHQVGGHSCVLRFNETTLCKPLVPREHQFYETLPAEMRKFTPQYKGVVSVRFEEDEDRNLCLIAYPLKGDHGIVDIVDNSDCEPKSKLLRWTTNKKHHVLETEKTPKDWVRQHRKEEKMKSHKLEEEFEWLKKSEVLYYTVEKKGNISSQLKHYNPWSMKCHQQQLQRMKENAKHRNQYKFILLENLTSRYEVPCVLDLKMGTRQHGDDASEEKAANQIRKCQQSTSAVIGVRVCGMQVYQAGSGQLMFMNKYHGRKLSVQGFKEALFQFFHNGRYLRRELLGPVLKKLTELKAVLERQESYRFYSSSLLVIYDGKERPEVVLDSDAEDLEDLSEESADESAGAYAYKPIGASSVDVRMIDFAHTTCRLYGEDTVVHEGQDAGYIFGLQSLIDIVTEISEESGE
Nature of the assay: IP6K enzyme inhibitory assay (ADP-Glo Kinase Assay), human IP6K2. Particulars: compound concentration 0.1 μM; read-out: ADP-Glo method inhibitory rate (%) human IP6K2. As for the experimental part: as §1, §2

A further assay deals with T3, human IP6K3 (Homo sapiens, UniProt Q96PC2).
T3 construct: human IP6K3 (1-410) gene; made in house; host or cells: BL21 (DE3) Escherichia coli
T3 sequence (Q96PC2 1-410): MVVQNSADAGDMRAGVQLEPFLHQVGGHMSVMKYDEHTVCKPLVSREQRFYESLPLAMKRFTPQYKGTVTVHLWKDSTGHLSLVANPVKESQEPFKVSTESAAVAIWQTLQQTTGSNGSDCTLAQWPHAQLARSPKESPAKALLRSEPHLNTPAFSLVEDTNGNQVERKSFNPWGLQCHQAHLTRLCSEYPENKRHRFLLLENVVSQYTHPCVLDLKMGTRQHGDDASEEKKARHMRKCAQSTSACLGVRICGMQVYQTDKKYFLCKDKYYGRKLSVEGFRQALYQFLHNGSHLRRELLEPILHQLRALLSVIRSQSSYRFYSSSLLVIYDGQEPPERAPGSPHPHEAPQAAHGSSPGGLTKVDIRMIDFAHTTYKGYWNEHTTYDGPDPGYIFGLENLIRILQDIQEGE
The experiment in a line: IP6K enzyme inhibitory assay (ADP-Glo Kinase Assay), human IP6K3. Particulars: compound concentration 0.1 μM; read-out: ADP-Glo method inhibitory rate (%) human IP6K3. As for the experimental part: as §1, §2

T1 sequence (Q92551 whole entry): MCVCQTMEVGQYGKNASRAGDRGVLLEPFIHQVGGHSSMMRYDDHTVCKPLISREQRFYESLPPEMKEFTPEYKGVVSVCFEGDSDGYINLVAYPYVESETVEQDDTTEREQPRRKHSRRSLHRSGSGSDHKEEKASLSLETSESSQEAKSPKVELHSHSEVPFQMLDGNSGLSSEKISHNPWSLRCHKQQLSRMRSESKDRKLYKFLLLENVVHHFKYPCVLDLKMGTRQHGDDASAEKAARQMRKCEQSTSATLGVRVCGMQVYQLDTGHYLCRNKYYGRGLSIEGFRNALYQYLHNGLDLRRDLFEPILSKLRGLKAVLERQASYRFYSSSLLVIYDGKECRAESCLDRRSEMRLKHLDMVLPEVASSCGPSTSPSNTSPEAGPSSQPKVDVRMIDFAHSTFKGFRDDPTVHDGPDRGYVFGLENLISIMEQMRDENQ

On to `O=C(O)c1ccc2c(c1)[C@]1(CC[C@@H](Oc3ccc(Cl)cc3Cl)CC1)C(=O)N2` [Example 1, (1r,4r)-4-(2,4-dichlorophenoxy)-2′-oxo-1′,2′-dihydrospiro[cyclohexane-1,3′-indole]-5′-carboxylic acid], for which the inhibition at 0.1 µM came to 100% at human IP6K1, 100% at human IP6K2 and 99% at human IP6K3.
On to `O=C(O)c1ccc2c(c1)[C@]1(CC[C@@H](Oc3ccc(F)cc3)CC1)C(=O)N2` [Example 2], for which the figures for the inhibition at 0.1 µM on human IP6K1, at human IP6K2 and at human IP6K3 were 101%, 94% and 100%, respectively.
In the same order, the values of `O=C(O)c1ccc2c(c1)[C@]1(CC[C@@H](Oc3c(Cl)cc(Cl)cc3Cl)CC1)C(=O)N2` [Example 3, (1r,4r)-2′-oxo-4-(2,4,6-trichlorophenoxy)-1′,2′-dihydrospiro[cyclohexane-1,3′-indole]-5′-carboxylic acid] are 101%, 101% and 85%.
For `O=C(O)c1ccc2c(c1)[C@]1(CC[C@@H](Oc3ncc(F)cc3F)CC1)C(=O)N2` [Example 4, (1r,4r)-4-((3,5-difluoropyridin-2-yl)oxy)-2′-oxo-1′,2′-dihydrospiro[cyclohexane-1,3′-indole]-5′-carboxylic acid], in that order: 66%, 79% and 99%.
In the same order, the values of `O=C(O)c1ccc2c(c1)[C@]1(CC[C@H](Oc3cc(F)cnc3F)CC1)C(=O)N2` [Example 5, (1s,4s)-4-((2,5-difluoropyridin-3-yl)oxy)-2′-oxo-1′,2′-dihydrospiro[cyclohexane-1,3′-indole]-5′-carboxylic acid] are 86%, 89% and 94%.
Take `O=C(O)c1ccc2c(c1)[C@]1(CC[C@@H](Oc3ccc(C(F)(F)F)nc3)CC1)C(=O)N2` [Example 6, (1r,4r)-2′-oxo-4-((6-(trifluoromethyl)pyridin-3-yl)oxy)-1′,2′-dihydrospiro[cyclohexane-1,3′-indole]-5′-carboxylic acid]: the inhibition at 0.1 µM was 96% at human IP6K1, 93% at human IP6K2 and 97% at human IP6K3.
For `N#Cc1cc(Cl)ccc1O[C@H]1CC[C@@]2(CC1)C(=O)Nc1ccc(C(=O)O)cc12` [Example 7, (1r,4r)-4-(4-chloro-2-cyanophenoxy)-2′-oxo-1′,2′-dihydrospiro[cyclohexane-1,3′-indole]-5′-carboxylic acid], in that order: 100%, 101% and 86%.
As for `NC(=O)c1cc(Cl)ccc1O[C@H]1CC[C@@]2(CC1)C(=O)Nc1ccc(C(=O)O)cc12` [Example 8, (1r,4r)-4-(2-carbamoyl-4-chlorophenoxy)-2′-oxo-1′,2′-dihydrospiro[cyclohexane-1,3′-indole]-5′-carboxylic acid], the results for the inhibition at 0.1 µM at human IP6K1, at human IP6K2 and at human IP6K3 were 100%, 97% and 95%, respectively.
For `O=C(O)c1ccc2c(c1)[C@]1(CC[C@@H](Oc3ccc(C(F)(F)F)cc3)CC1)C(=O)N2` [Example 10, (1r,4r)-2-oxo-4-(4-(trifluoromethyl)phenoxy)-1′,2′-dihydrospiro[cyclohexane-1,3′-indole]-5′-carboxylic acid], in that order: 98%, 100% and 102%.
With `O=C(O)c1ccc2c(c1)[C@]1(CC[C@@H](Oc3ccc(Cl)cn3)CC1)C(=O)N2` [Example 11, (1r,4r)-4-((5-chloropyridin-2-yl)oxy)-2′-oxo-1′,2′-dihydrospiro[cyclohexane-1,3′-indole]-5′-carboxylic acid], the inhibition at 0.1 µM on human IP6K1 was 100%; at human IP6K2 it was 97%; on human IP6K3, 102%.
